The compounds below were run against T1, CDK2/CycE (Homo sapiens, UniProt P24941) (assay: CDK2/CycE kinase assay (TR-FRET, 2 mM ATP)). Conditions: 2 mM ATP (high ATP); median; read-out: CDK2/CyclinE, 2 mM ATP (high ATP), IC50 (median).
T1 construct: purchased ProQinase GmbH (Freiburg, Germany); host or cells: insect cells (Sf9)
Assay type: biochemical
In short: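 GST-tagged human CDK2 and CycE from Sf9 cells, about 10 ng/ml, pre-incubated 15 min at 22 °C with compound in Tris/HCl pH 8.0 buffer. Reaction with 2 mM ATP and 0.75 µM biotinylated peptide for 25 min at 22 °C. Phospho-RB antibody TR-FRET (665/620 nm ratio) read after 1 h; data normalised to no-inhibitor and no-enzyme controls.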

Row | IC50 [µM] | Structure (SMILES)
1 | 0.885 | CC[C@H](CO)Nc1nc(NCc2nc3ccccc3[nH]2)n2ncc(Br)c2n1 [Example 368, (2R)-2-[(4-{[(1H-benzimidazol-2-yl)methyl]amino}-8-bromopyrazolo[1,5-a][1,3,5]triazin-2-yl)amino]butan-1-ol]
2 | > 20 | CN1CCN(c2nc(NCc3nc4c(OC(F)(F)F)cccc4[nH]3)n3ncc(Br)c3n2)CC1 [Example 376, 8-bromo-2-(4-methylpiperazin-1-yl)-N-{[4-(trifluoromethoxy)-1H-benzimidazol-2-yl]methyl}pyrazolo[1,5-a][1,3,5]triazin-4-amine]
3 | 1.74 | CN(c1nc(NCc2nc3ccccc3[nH]2)n2ncc(Br)c2n1)[C@H]1C[C@H](O)C1 [Example 365, trans-3-[(4-{[(1H-benzimidazol-2-yl)methyl]amino}-8-bromopyrazolo[1,5-a][1,3,5]triazin-2-yl)(methyl)amino]cyclobutan-1-ol]
4 | 7.39 | Brc1cnn2c(NCc3nc4ccccc4[nH]3)nc(N3CC4CCC(C3)O4)nc12 [Example 351, N-[(1H-benzimidazol-2-yl)methyl]-8-bromo-2-(8-oxa-3-azabicyclo[3.2.1]octan-3-yl)pyrazolo[1,5-a][1,3,5]triazin-4-amine]
5 | 12.4 | CN(CC(C)(C)O)c1nc(NCc2nc3c(F)c(F)ccc3[nH]2)n2ncc(Cl)c2n1 [Example 359, 1-[(8-chloro-4-{[(4,5-difluoro-1H-benzimidazol-2-yl)methyl]amino}pyrazolo[1,5-a][1,3,5]triazin-2-yl)(methyl)amino]-2-methylpropan-2-ol]
6 | 13.5 | CN(CC(C)(C)O)c1nc(NCc2nc3cc(C(F)(F)F)ccc3[nH]2)n2ncc(C3CC3)c2n1 [Example 323, 1-{[8-cyclopropyl-4-({[5-(trifluoromethyl)-1H-benzimidazol-2-yl]methyl}amino)pyrazolo[1,5-a][1,3,5]triazin-2-yl](methyl)amino}-2-methylpropan-2-ol]
7 | > 20 | FC(F)(F)c1cnn2c(NCc3nc4cc(Cl)c(Cl)cc4[nH]3)nc(N3CCOCC3)nc12 [Example 332, N-[(5,6-dichloro-1H-benzimidazol-2-yl)methyl]-2-(morpholin-4-yl)-8-(trifluoromethyl)pyrazolo[1,5-a][1,3,5]triazin-4-amine]
8 | 17.1 | CN1CCN(c2nc(NCc3nc4cc(OC(F)(F)F)ccc4[nH]3)n3ncc(Br)c3n2)CC1 [Example 377, 8-bromo-2-(4-methylpiperazin-1-yl)-N-{[5-(trifluoromethoxy)-1H-benzimidazol-2-yl]methyl}pyrazolo[1,5-a][1,3,5]triazin-4-amine]
9 | 1.45 | Fc1cc(F)cc(-c2nnc(CNc3nc(N4CCOCC4)nc4c(C(F)(F)F)cnn34)[nH]2)c1 [Example 386, N-{[5-(3,5-difluorophenyl)-4H-1,2,4-triazol-3-yl]methyl}-2-(morpholin-4-yl)-8-(trifluoromethyl)pyrazolo[1,5-a][1,3,5]triazin-4-amine]
10 | 6.74 | FC(F)(F)c1ccc2[nH]c(CNc3nc(N4CCOCC4)nc4c(Br)cnn34)nc2c1 [Example 339, 8-bromo-2-(morpholin-4-yl)-N-{[5-(trifluoromethyl)-1H-benzimidazol-2-yl]methyl}pyrazolo[1,5-a][1,3,5]triazin-4-amine]
11 | 2.3 | Brc1cnn2c(NCc3nc4ccccc4[nH]3)nc(N3CC4CCC3CO4)nc12 (stereo not drawn) [Example 352, N-[(1H-benzimidazol-2-yl)methyl]-8-bromo-2-(2-oxa-5-azabicyclo[2.2.2]octan-5-yl)pyrazolo[1,5-a][1,3,5]triazin-4-amine]
12 | 0.573 | CC[C@@H](CO)Nc1nc(NCc2nc3ccccc3[nH]2)n2ncc(Br)c2n1 [Example 367, (2S)-2-[(4-{[(1H-benzimidazol-2-yl)methyl]amino}-8-bromopyrazolo[1,5-a][1,3,5]triazin-2-yl)amino]butan-1-ol]
13 | 11.9 | FC(F)(F)Oc1cccc2[nH]c(CNc3nc(N4CCOCC4)nc4c(Br)cnn34)nc12 [Example 375, 8-bromo-2-(morpholin-4-yl)-N-{[4-(trifluoromethoxy)-1H-benzimidazol-2-yl]methyl}pyrazolo[1,5-a][1,3,5]triazin-4-amine]
14 | 8.11 | CN(CC(C)(C)O)c1nc(NCc2nc3cc(OC(F)(F)F)ccc3[nH]2)n2ncc(Br)c2n1 [Example 378, 1-{[8-bromo-4-({[5-(trifluoromethoxy)-1H-benzimidazol-2-yl]methyl}amino)pyrazolo[1,5-a][1,3,5]triazin-2-yl](methyl)amino}-2-methylpropan-2-ol]
15 | 2.07 | CN(c1nc(NCc2nc3ccccc3[nH]2)n2ncc(Br)c2n1)[C@H]1C[C@@H](O)C1 [Example 364, cis-3-[(4-{[(1H-benzimidazol-2-yl)methyl]amino}-8-bromopyrazolo[1,5-a][1,3,5]triazin-2-yl)(methyl)amino]cyclobutan-1-ol]
16 | 1.81 | Fc1cccc(-c2nnc(CNc3nc(N4CCOCC4)nc4c(C(F)(F)F)cnn34)[nH]2)c1 [Example 385, N-{[5-(3-fluorophenyl)-4H-1,2,4-triazol-3-yl]methyl}-2-(morpholin-4-yl)-8-(trifluoromethyl)pyrazolo[1,5-a][1,3,5]triazin-4-amine]
17 | 4.34 | Fc1cccc2[nH]c(CNc3nc(N4CCOCC4)nc4c(Cl)cnn34)nc12 [Example 361, 8-chloro-N-[(4-fluoro-1H-benzimidazol-2-yl)methyl]-2-(morpholin-4-yl)pyrazolo[1,5-a][1,3,5]triazin-4-amine]
18 | 2.07 | CCNc1nc(NCc2nc(-c3ccc(C)cc3)c[nH]2)n2ncc(Br)c2n1 [Example 26, 8-bromo-N^2-ethyl-N^4-{[4-(4-methylphenyl)-1H-imidazol-2-yl]methyl}pyrazolo[1,5-a][1,3,5]triazine-2,4-diamine]
19 | > 20 | C[C@H]1CN(C)CCN1c1nc(NCc2nc3c(F)cccc3[nH]2)n2ncc(C(F)(F)F)c2n1 [Example 388, 2-[(2S)-2,4-dimethylpiperazin-1-yl]-N-[(4-fluoro-1H-benzimidazol-2-yl)methyl]-8-(trifluoromethyl)pyrazolo[1,5-a][1,3,5]triazin-4-amine]
20 | 9.31 | CN1CCN(c2nc(NCc3nc4c(F)cccc4[nH]3)n3ncc(Cl)c3n2)CC1.O=CO [Example 362, formic acid 8-chloro-N-[(4-fluoro-1H-benzimidazol-2-yl)methyl]-2-(4-methylpiperazin-1-yl)pyrazolo[1,5-a][1,3,5]triazin-4-amine]
21 | 5.35 | CN(CC(C)(C)O)c1nc(NCc2nc3c(F)c(Cl)ccc3[nH]2)n2ncc(C3CC3)c2n1 [Example 387, 1-[(4-{[(5-chloro-4-fluoro-1H-benzimidazol-2-yl)methyl]amino}-8-cyclopropylpyrazolo[1,5-a][1,3,5]triazin-2-yl)(methyl)amino]-2-methylpropan-2-ol]
22 | > 20 | CN1CCC(Oc2nc(NCc3nc4ccccc4[nH]3)n3ncc(Br)c3n2)CC1 [Example 389, N-[(1H-benzimidazol-2-yl)methyl]-8-bromo-2-[(1-methylpiperidin-4-yl)oxy]pyrazolo[1,5-a][1,3,5]triazin-4-amine]
23 | > 20 | CN1CCN(c2nc(NCc3nc4c(F)c(F)ccc4[nH]3)n3ncc(Cl)c3n2)CC1 [Example 358, 8-chloro-N-[(4,5-difluoro-1H-benzimidazol-2-yl)methyl]-2-(4-methylpiperazin-1-yl)pyrazolo[1,5-a][1,3,5]triazin-4-amine]
24 | > 20 | FC(F)(F)c1ccc2[nH]c(CNc3nc(N4CCOCC4)nc4c(C5CC5)cnn34)nc2c1 [Example 322, 8-cyclopropyl-2-(morpholin-4-yl)-N-{[5-(trifluoromethyl)-1H-benzimidazol-2-yl]methyl}pyrazolo[1,5-a][1,3,5]triazin-4-amine]
25 | 10.5 | CC[C@H](COC)Nc1nc(NCc2nc3ccccc3[nH]2)n2ncc(Br)c2n1 [Example 369, N4-[(1H-benzimidazol-2-yl)methyl]-8-bromo-N2-[(2R)-1-methoxybutan-2-yl]pyrazolo[1,5-a][1,3,5]triazine-2,4-diamine]

Row | Structure (SMILES) | IC50 [µM]
26 | Fc1cc2nc(CNc3nc(N4C[C@H]5CC[C@@H](C4)N5)nc4c(C5CC5)cnn34)[nH]c2cc1Cl [Example 328, N-[(6-chloro-5-fluoro-1H-benzimidazol-2-yl)methyl]-8-cyclopropyl-2-[(1R,5S)-3,8-diazabicyclo[3.2.1]octan-3-yl]pyrazolo[1,5-a][1,3,5]triazin-4-amine] | 14.5
27 | Brc1cnn2c(NCc3nc4ccccc4[nH]3)nc(N3C[C@H]4CC[C@@H]3CN4)nc12 (single isomer, unassigned) [Example 335, N-[(1H-benzimidazol-2-yl)methyl]-8-bromo-2-{[1R or S-(1R*,4R*)]-2,5-diazabicyclo[2.2.2]octan-2-yl}pyrazolo[1,5-a][1,3,5]triazin-4-amine] | 2.8
28 | FC(F)(F)Oc1cccc2[nH]c(CNc3nc(N4C[C@H]5CC[C@@H](C4)N5)nc4c(Br)cnn34)nc12 [Example 381, 8-bromo-2-[(1R,5S)-3,8-diazabicyclo[3.2.1]octan-3-yl]-N-{[4-(trifluoromethoxy)-1H-benzimidazol-2-yl]methyl}pyrazolo[1,5-a][1,3,5]triazin-4-amine] | > 20
29 | Clc1cc2nc(CNc3nc(N4CC5CCC(C4)N5)nc4c(C5CC5)cnn34)[nH]c2cc1Cl [Example 324, 8-cyclopropyl-2-(3,8-diazabicyclo[3.2.1]octan-3-yl)-N-[(5,6-dichloro-1H-benzimidazol-2-yl)methyl]pyrazolo[1,5-a][1,3,5]triazin-4-amine] | 13.8
30 | Fc1cccc2[nH]c(CNc3nc(N4CC5CCC(C4)N5)nc4c(Cl)cnn34)nc12 [Example 363, 8-chloro-2-(3,8-diazabicyclo[3.2.1]octan-3-yl)-N-[(4-fluoro-1H-benzimidazol-2-yl)methyl]pyrazolo[1,5-a][1,3,5]triazin-4-amine] | 8.61

Source: US20230117034A1, “PYRAZOLOTRIAZINES” (Bayer Aktiengesellschaft, priority 2019, published 2023)
